Source: ChEMBL document CHEMBL5385875, “Tumor killing by a dietary curcumin mono-carbonyl analog that works as a selective ROS generator via TrxR inhibition” (Eur J Med Chem, 2023)
The source made the active and inactive calls. The rule behind the calls is not given here.

Tests used:
NCI-H460 [1] = assay: Cytotoxicity against human NCI-H460 cells assessed as reduction in cell viability at 0.5 to 1 uM measured after 48 hrs in presence of necrostatin-1 by MTT assay; assay type: functional, cell-based; conditions: dose 0.5-1 µM
NCI-H460 [2] = assay: Induction of apoptosis in human NCI-H460 cells assessed as reduction of mitochondrial membrane potential at 0.5 to 2 uM by JC-1 staining based flow cytometry analysis; assay type: functional, cell-based; conditions: dose 0.5-2 µM, time 12-36 hrs, TDE = time-dependent effect
NCI-H460 [3] = assay: Cytotoxicity against human NCI-H460 cells assessed as reduction in cell viability at 0.5 to 2 uM incubated for 48 hrs in presence of alpha tocopherol by MTT assay; assay type: functional, cell-based; conditions: dose 0.5-2 µM
[4] = Toxicity in BALB/c nude mouse assessed as effect on hair colour at 5 to 15 mg/kg, ip measured every two days for 27 days; assay type: organism-based; conditions: in vivo, 648 h, dose 5-15 mg/kg, time 27 day
NCI-H460 [5] = assay: Induction of intracellular ROS accumulation in human NCI-H460 cells at 0.5 to 2 uM by DCFH-DA dye based fluorescence assay; assay type: functional, cell-based; conditions: dose 0.5-2 µM, time 1-12 hrs, TDE = time-dependent effect
NCI-H460 [6] = assay: Induction of ROS accumulation in human NCI-H460 cells assessed as reduction in GSH levels by measuring yellow green fluorescence incubated for 9 hrs in presence of NAC by fluorescence microscope based analysis; assay type: functional, cell-based
NCI-H460 [7] = assay: Induction of ferroptosis in human NCI-H460 cells assessed as fold increase in MDA levels at 2 uM measured after 40 hrs by MDA assay; assay type: functional
NCI-H460 [8] = assay: Downregulation of Bcl-2 expression in human NCI-H460 cells at 1 to 2 uM measured after 48 hrs by immunoblot analysis; assay type: functional, cell-based; conditions: dose 1-2 µM
NCI-H460 [9] = assay: Inhibition of TrxR protein expression in human NCI-H460 cells measured after 6 hrs by immunoblot analysis; assay type: functional, cell-based; conditions: dose 0.5-2 µM
NCI-H460 [10] = assay: Cytotoxicity against human NCI-H460 cells assessed as reduction in cell viability at 0.5 to 1 uM measured after 48 hrs in presence of ferrostatin-1 by MTT assay; assay type: functional, cell-based; conditions: dose 0.5-1 µM
NCI-H460 [11] = assay: Antitumor activity against human NCI-H460 cells xenografted in BALB/c nude mouse assessed as induction of apoptosis at 5 to 15 mg/kg by H and E staining based analysis; assay type: functional, organism-based; conditions: dose 5-15 mg/kg
NCI-H460 [12] = assay: Upregulation of Bax expression in human NCI-H460 cells at 1 to 2 uM measured after 48 hrs by immunoblot analysis; assay type: functional, cell-based; conditions: dose 1-2 µM
[13] = Toxicity in BALB/c nude mouse assessed as effect on animal activity at 5 to 15 mg/kg, ip measured every two days for 27 days; assay type: organism-based; conditions: in vivo, 648 h, dose 5-15 mg/kg, time 27 day
NCI-H460 [14] = assay: Induction of ferroptosis in human NCI-H460 cells assessed as increase in intracellular […] by measuring increase in red fluorescence intensity at 0.5 uM incubated for 40 hrs in presence of NAC by C11-BODIPY staining based microscopy analysis; assay type: functional, cell-based
[15] = Toxicity in BALB/c nude mouse assessed as effect on heart at 5 to 15 mg/kg, ip measured every two days for 27 days; assay type: organism-based; conditions: in vivo, 648 h, dose 5-15 mg/kg, time 27 day
[16] = Toxicity in BALB/c nude mouse assessed as effect on kidney at 5 to 15 mg/kg, ip measured every two days for 27 days by H and E staining based analysis; assay type: organism-based; conditions: in vivo, 648 h, dose 5-15 mg/kg, time 27 day
NCI-H460 [17] = assay: Induction of intracellular ROS accumulation in human NCI-H460 cells incubated for 1 to 12 hrs by DCFH-DA dye based fluorescence assay; assay type: functional, cell-based; conditions: dose 0.5-2 µM, time 1-12 hrs
NCI-H460 [18] = assay: Induction of apoptosis in human NCI-H460 cells assessed as reduction of mitochondrial membrane potential at 0.5 to 2 uM incubated for 12 to 36 hrs in presence of NAC by JC-1 staining based flow cytometry analysis; assay type: functional, cell-based; conditions: dose 0.5-2 µM, time 12-36 hrs
NCI-H460 [19] = assay: Cytotoxicity against human NCI-H460 cells assessed as reduction in cell viability at 0.5 to 1 uM measured after 48 hrs in presence of erastin by MTT assay; assay type: functional, cell-based; conditions: dose 0.5-1 µM
NCI-H460 [20] = assay: Upregulation of caspase-3 activation in human NCI-H460 cells at 1 to 2 uM measured after 48 hrs by immunoblot analysis; assay type: functional, cell-based; conditions: dose 1-2 µM
HepG2 = assay: Cytotoxicity against human HepG2 cells assessed as reduction in cell viability incubated for 48 hrs by MTT assay; assay type: functional, cell-based; conditions: HepG2, 48 h
NCI-H460 [21] = assay: Cytotoxicity against human NCI-H460 cells assessed as reduction in cell viability at 0.5 to 2 uM incubated for 48 hrs in presence of BSO by MTT assay; assay type: functional, cell-based; conditions: dose 0.5-2 µM
[22] = Toxicity in BALB/c nude mouse assessed as effect on kidney at 5 to 15 mg/kg, ip measured every two days for 27 days; assay type: organism-based; conditions: in vivo, 648 h, dose 5-15 mg/kg, time 27 day
NCI-H460 [23] = assay: Antitumor activity against human NCI-H460 cells xenografted in BALB/c nude mouse assessed as inhibition of tumor formation administered as IP dose and measured every two days for 27 days; assay type: functional; conditions: dose 5-15 mg/kg, time 27.0 day
NCI-H460 [24] = assay: Induction of intracellular ROS accumulation in human NCI-H460 cells at 1 to 2 uM measured after 6 hrs in presence of VE by DCFH-DA dye based fluorescence assay; assay type: functional, cell-based; conditions: dose 1-2 µM
[25] = Toxicity in BALB/c nude mouse assessed as effect on body weight at 5 to 15 mg/kg, ip measured every two days for 27 days; assay type: organism-based; conditions: in vivo, 648 h, dose 5-15 mg/kg, time 27 day
A549 = assay: Cytotoxicity against human A549 cells assessed as reduction in cell viability incubated for 48 hrs by MTT assay; assay type: functional, cell-based; conditions: A549, 48 h
NCI-H460 [26] = assay: Cytotoxicity against human NCI-H460 cells assessed as reduction in cell viability incubated for 48 hrs by MTT assay; assay type: functional, cell-based; conditions: NCI-H460, 48 h
MRC5 = assay: Induction of ROS accumulation in human MRC5 cells assessed as reduction in GSH levels by measuring yellow green fluorescence incubated for 9 hrs by fluorescence microscope based analysis; assay type: functional, cell-based

In the case of `O=C1/C(=C/c2cccc(C(F)(F)F)c2)CNC/C1=C\c1cccc(C(F)(F)F)c1`, the Activity (NCI-H460 [1]) is reported as “inactive”, the Activity (NCI-H460 [2]) is reported as “Tde” and the Activity (NCI-H460 [3]) is reported as “inactive”. The Activity [4] was “Non-Toxic”, the Activity (NCI-H460 [5]) was “Tde” and the Activity (NCI-H460 [6]) was “inactive”. For the same compound, the “fold change (FC)” value (NCI-H460 [7]) was 3.5, the Activity (NCI-H460 [8]) was “Active” and the inhibition (NCI-H460 [9]) was “Dose-Dependent Effect”. The Activity (NCI-H460 [10]) was “Active”, the Activity (NCI-H460 [11]) was “Active” and the Activity (NCI-H460 [12]) was “Active”. The Activity [13] was “Non-Toxic”, the Activity (NCI-H460 [14]) was “inactive” and the Activity [15] was “Non-Toxic”. The Activity [16] was “Non-Toxic”, the Activity (NCI-H460 [17]) was “Dose-Dependent Effect” and the Activity (NCI-H460 [18]) was “inactive”. The Activity (NCI-H460 [19]) was “Active”, the Activity (NCI-H460 [20]) was “Active” and the IC50 (HepG2) was 670 nM. The Activity (NCI-H460 [21]) was “Active”, the Activity [22] was “Non-Toxic” and the Activity (NCI-H460 [23]) was “Dose-Dependent Effect”. For the same compound, the Activity (NCI-H460 [24]) was “inactive”, the Activity [25] was “Non-Toxic” and the IC50 (A549) was 5800 nM. The IC50 (NCI-H460 [26]) was 440 nM and the Activity (MRC5) was “inactive”.
